# Laboratory results as given in the supplement of paper PMC10599287.
# Key:
# [1] = compound: CCNC(=O)C#Cc1ccc2c(C(=Nc3ccc(CN(C)C)cc3)c3ccccc3)c(O)[nH]c2c1; experiment: absolute IC70 (antiproliferative, propidium iodide); higher = less potent; details: exposure time: 4 days
# Experimental: (§1)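 Modified propidium iodide survival/proliferation assay in 294 human tumor cell lines (2D monolayer for solid tumors, suspension for hematologic lines) after 4 days of continuous exposure to 10 concentrations in half-log steps from 0.001 to 30 µM. Absolute IC70 was fitted by four-parameter nonlinear regression of T/C × 100 (%) values; 30 µM is the top dose.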
# [2] = compound: O=C(NOCCO)c1ccc2cncn2c1Nc1ccc(I)cc1F [GDC-0623]; experiment: as above; details: exposure time: 4 days
# Experimental: as §1
Test System,absolute IC70 [1],absolute IC70 [2]
OCI-LY18,494 nM,> 30000 nM
OCUM-1,25 nM,11 nM
OE21,2210 nM,> 30000 nM
OPM-2,336 nM,> 30000 nM
OVCAR-3,26100 nM,> 30000 nM
OVCAR-4,4280 nM,> 30000 nM
OVCAR-5,694 nM,367 nM
OVCAR-8,2800 nM,> 30000 nM
OVXF_899,457 nM,14700 nM
OVXF_1023,14200 nM,> 30000 nM
PA-TU-8902,913 nM,> 30000 nM
PA-TU-8988T,773 nM,> 30000 nM
PANC-1,5080 nM,> 30000 nM
PAXF_546,12200 nM,> 30000 nM
PAXF_1657,564 nM,260 nM
PAXF_1986,414 nM,92 nM
PAXF_1998,4620 nM,> 30000 nM
PAXF_2035,855 nM,17200 nM
PC-3M,161 nM,> 30000 nM
PC-9,622 nM,> 30000 nM
PL-21,338 nM,365 nM
PXF_698,301 nM,> 30000 nM
PXF_1118,1550 nM,> 30000 nM
PXF_1752,1860 nM,> 30000 nM

Test System,absolute IC70 [1],absolute IC70 [2]
RAJI,4790 nM,> 30000 nM
RAMOS,507 nM,> 30000 nM
RCH-ACV,6 nM,> 30000 nM
RD-ES,77 nM,> 30000 nM
RH-30,794 nM,24600 nM
RH-41,606 nM,> 30000 nM
RKO,21 nM,125 nM
RPMI-2650,2150 nM,> 30000 nM
RPMI-8226,1580 nM,> 30000 nM
RT112,42 nM,> 30000 nM
RXF_393,869 nM,15100 nM
RXF_486,816 nM,239 nM
RXF_1183,949 nM,102 nM
RXF_1220,4720 nM,> 30000 nM
RXF_1781,309 nM,7380 nM
RXF_2282,26 nM,> 30000 nM
RXF_2516,164 nM,8070 nM
SCLC-21H,31 nM,> 30000 nM
SD1,4 nM,> 30000 nM
SF268,1330 nM,> 30000 nM
SF295,8840 nM,> 30000 nM
SISO,715 nM,> 30000 nM
SK-BR-3,4070 nM,> 30000 nM
SK-GT-2,2800 nM,> 30000 nM

Test System,absolute IC70 [1],absolute IC70 [2]
SK-LMS-1,937 nM,368 nM
SK-MES-1,617 nM,235 nM
SK-OV-3,13400 nM,> 30000 nM
SK-UT-1B,1400 nM,5790 nM
SN12C,665 nM,2960 nM
SNB-75,1100 nM,2680 nM
SNU-1,3000 nM,> 30000 nM
SNU-16,15400 nM,> 30000 nM
SNU-423,1320 nM,> 30000 nM
SNU-449,3200 nM,2220 nM
SNU-475,3550 nM,> 30000 nM
SNU-601,3000 nM,> 30000 nM
SNU-620,225 nM,> 30000 nM
SNU-739,1380 nM,> 30000 nM
SNU-878,9320 nM,18800 nM
SNU-899,515 nM,35 nM
SR,13 nM,> 30000 nM
SU-DHL-1,406 nM,> 30000 nM
SU-DHL-4,220 nM,> 30000 nM
SW403,841 nM,7.71 nM
SW480,101 nM,23.9 nM
SW579,279 nM,204 nM
SW620,69 nM,10 nM
SW948,3000 nM,> 30000 nM

Test System,absolute IC70 [1],absolute IC70 [2]
SW1463,323 nM,14.3 nM
SW1710,525 nM,3740 nM
SXFO_678,87 nM,> 30000 nM
SXFS_1301,3850 nM,> 30000 nM
Saos-2,593 nM,> 30000 nM
SiHa,4800 nM,> 30000 nM
T24,353 nM,46 nM
T47D,6840 nM,> 30000 nM
TE671,1360 nM,> 30000 nM
TFK-1,3450 nM,> 30000 nM
THP-1,84 nM,47 nM
TK10,873 nM,> 30000 nM
TT2609-C02,18 nM,12 nM
U-2-OS,162 nM,530 nM
U-251MG,1180 nM,783 nM
U-266,1700 nM,> 30000 nM
U-937,348 nM,> 30000 nM
U-2197,2770 nM,> 30000 nM
UO-31,527 nM,1620 nM
UOC-M1,12 nM,> 30000 nM
UXF_1138,6 nM,> 30000 nM
VCAP,5020 nM,> 30000 nM
WSU-DLCL2,892 nM,> 30000 nM
